Here are results for 76 sequences from the OligoGym collection.

After the bases stand the sugars from the 5' end (letter, count) and the backbone: PS all phosphorothioate, else s phosphorothioate and o phosphodiester by linkage. Methylation of C is not given here. e = 2'-O-(2-methoxyethyl) (MOE); k = constrained ethyl (cEt); d = 2'-deoxy (DNA); m = 2'-O-methyl

In this data set the target is HSD17B13. To be noted: ASO, HepaRG.

For the sequence “TGCTAGTGCCAAACCA (sugars k3 d9 k3 e1, PS)”, the target mRNA inhibition reads like this: (0.02 µM) 8%; (0.078 µM) 16%; (0.313 µM) 38%; (1 µM) 73%; (1.25 µM) 54%; (5 µM) 71%.

In turn, TTGGTGAACCCAGTAT (sugars k3 d10 k3, PS) came in with a target mRNA inhibition (1 µM) of 31%.

For ACAGTCTTAAACCTTC (sugars k3 d10 k3, PS), the target mRNA inhibition was 5% (0.02 µM); 16% (0.078 µM); 52% (0.313 µM); 76% (1 µM); 75% (1.25 µM); 80% (5 µM).

ACAACTGGAGGTATGT (sugars k3 d10 k3, PS) yielded a target mRNA inhibition (1 µM) of 0%.

As for “TGACAATGGTTGCCAC (sugars k3 d1 m1 d8 k3, PS)”, the target mRNA inhibition (1 µM) stood at 55%.

Sequence “TCTTAGCTGTGCACTC (sugars k3 d1 m1 d8 k3, PS)” gave a target mRNA inhibition (1 µM) of 71%.

In turn, GCTTAGTACCAAGACA (sugars k3 d10 k3, PS) registered a target mRNA inhibition (1 µM) of 62%.

Where the note is “1 µM”, AGCTAAGAGACACTTC (sugars k3 d10 k3, PS) yielded a target mRNA inhibition of 41%.

In the case of TCATTAAGCTTAGTAT (sugars k3 d10 k3, PS), the target mRNA inhibition (1 µM) stood at 31%.

Consider GGATAGAGCACATGGC (sugars k3 d10 k3, PS), for which, where the note is “1 µM”, the target mRNA inhibition came to 33%.

GTTTGACTGCTGCTAG (sugars k3 d10 k3, PS) showed a target mRNA inhibition (1 µM) of 58%.

AGGCACTAAAGGTTTC (sugars k3 d10 k3, PS) had a target mRNA inhibition (1 µM) of 61%.

Where the note is “1 µM”, TAGAATACGCTGAGAG (sugars k3 d10 k3, PS) gave a target mRNA inhibition of 47%.

In turn, CTGCCAGATTGCACAA (sugars k3 d10 k3, PS) had a target mRNA inhibition (1 µM) of 44%.

For the sequence CATCCCCTAAGTTATT (sugars k3 d10 k3, PS), the target mRNA inhibition (1 µM) was 24%.

With “TGATGTAGTGGGAGTC (sugars k3 d9 k3 e1, PS)”, the target mRNA inhibition (0.02 µM) worked out at 5%; the target mRNA inhibition (0.078 µM) came to 0%; the target mRNA inhibition (0.313 µM) stood at 36%; the target mRNA inhibition (1.25 µM) came out at 62%; the target mRNA inhibition (5 µM) is 74%.

The sequence TATACTAGGATTAGAA (sugars k3 d10 k3, PS) returned a target mRNA inhibition (1 µM) of 2%.

CTATCTCCCTATTTGT (sugars k3 d10 k3, PS) had a target mRNA inhibition (1 µM) of 15%.

With GATTGCATAAGAGCCA (sugars k3 d10 k3, PS), the target mRNA inhibition (0.02 µM) is 6%; the target mRNA inhibition (0.078 µM) came to 31%; the target mRNA inhibition (0.313 µM) amounted to 57%; the target mRNA inhibition (1 µM) worked out at 82%; the target mRNA inhibition (1.25 µM) turned out to be 67%; the target mRNA inhibition (5 µM) is 58%.

CTGCGCACATATTTTA (sugars k3 d10 k3, PS) had a target mRNA inhibition (0.02 µM) of 0%; a target mRNA inhibition (0.078 µM) of 0%; a target mRNA inhibition (0.313 µM) of 7%; a target mRNA inhibition (1 µM) of 92%; a target mRNA inhibition (1.25 µM) of 52%; a target mRNA inhibition (5 µM) of 74%.

For TAGAGGGTCCACTTTT (sugars k3 d10 k3, PS), the target mRNA inhibition (1 µM) came to 36%.

AATAGCAAGCCAACAG (sugars k3 d10 k3, PS) yielded a target mRNA inhibition (1 µM) of 9%.

TCTTAAGATACCCAGG (sugars k3 d10 k3, PS) showed a target mRNA inhibition (1 µM) of 58%.

Sequence “TTATGTAATAGCCAGT (sugars k3 d1 m1 d8 k3, PS)” yielded a target mRNA inhibition (1 µM) of 56%.

In turn, CCTAAACAAACACTAT (sugars k3 d10 k3, PS) had a target mRNA inhibition (1 µM) of 8%.

Under “1 µM”, GTGACATAACTACTTC (sugars k3 d10 k3, PS) displayed a target mRNA inhibition of 68%.

“ATAGTCCATGCAAAAG (sugars kkdddddddddkekek, PS)” had a target mRNA inhibition (1 µM) of 31%.

For CCCAATTATGAATCTG (sugars k3 d10 k3, PS), under “1 µM”, the target mRNA inhibition was 62%.

Sequence ATGAGTAGGCAACTGA (sugars k3 d10 k3, PS) returned a target mRNA inhibition (1 µM) of 61%.

In the case of CAGAATAGAGTTGCAC (sugars k3 d10 k3, PS), the target mRNA inhibition (1 µM) came to 50%.

Where the note is “1 µM”, GTTTCAACTAAACATG (sugars k3 d10 k3, PS) gave a target mRNA inhibition of 65%.

Consider TCTTAAGGATCATTGC (sugars k3 d10 k3, PS), for which the target mRNA inhibition (1 µM) was 0%.

Where the note is “1 µM”, ATGTAGTGTTTACAAG (sugars k3 d10 k3, PS) yielded a target mRNA inhibition of 58%.

Turning to “ATGCTACTTGAACAGT (sugars kkdddddddddkekek, PS)”, the target mRNA inhibition (1 µM) was determined as 54%.

ATATACAGACTAAGGG (sugars k3 d10 k3, PS): the target mRNA inhibition (1 µM) came to 24%.

For the sequence CAAGTTTTCACCTCAG (sugars k3 d10 k3, PS), the target mRNA inhibition amounted to 17% (0.02 µM); 41% (0.078 µM); 75% (0.313 µM); 93% (1 µM); 92% (1.25 µM); 95% (5 µM).

In turn, ATTTTACTGGGATACT (sugars k3 d10 k3, PS) showed a target mRNA inhibition (1 µM) of 49%.

As to AGTAGTGTAAGCTGAG (sugars k3 d10 k3, PS), the target mRNA inhibition reads like this: (0.02 µM) 0%; (0.078 µM) 4%; (0.313 µM) 50%; (1 µM) 88%; (1.25 µM) 78%; (5 µM) 92%.

For the setting “1 µM”, CACTAATATTGAGGCA (sugars k3 d10 k3, PS) registered a target mRNA inhibition of 31%.

ACATAGCTAACTCAGG (sugars k3 d10 k3, PS) returned a target mRNA inhibition (1 µM) of 38%.

In the case of “CAGCATTGATTCGAAA (sugars k3 d9 k3 e1, PS)”, where the note is “1 µM”, the target mRNA inhibition was 53%.

Under “1 µM”, CTGATTACAGCATCAA (sugars k3 d10 k3, PS) returned a target mRNA inhibition of 40%.

For the sequence GTCGGTCACCTTTCAT (sugars k3 d10 k3, PS), the target mRNA inhibition is, setting by setting: (0.02 µM) 16%; (0.078 µM) 37%; (0.313 µM) 57%; (1 µM) 85%; (1.25 µM) 82%; (5 µM) 90%.

For the setting “1 µM”, CTTACGACAGGTCATC (sugars k3 d10 k3, PS) returned a target mRNA inhibition of 39%.

Regarding TACTTGAACAGTCTTA (sugars k3 d10 k3, PS), where the note is “1 µM”, the target mRNA inhibition amounted to 48%.

Sequence CACTAATGAATCATGA (sugars k3 d10 k3, PS) showed a target mRNA inhibition (1 µM) of 25%.

The sequence TTATGATAATTTGGTG (sugars k3 d10 k3, PS) returned a target mRNA inhibition (1 µM) of 0%.

With “GTTTCTTATGTAATAG (sugars kkkddddkddddkkke, PS)”, for the setting “1 µM”, the target mRNA inhibition was 44%.

Under “1 µM”, ACTGACAACCCTTAAC (sugars k3 d10 k3, PS) had a target mRNA inhibition of 10%.

Turning to ATGGTAAGCCCCATGC (sugars k3 d10 k3, PS), under “1 µM”, the target mRNA inhibition is 22%.

Regarding CTCAAATGTCTTGGTA (sugars k3 d10 k3, PS), the target mRNA inhibition (1 µM) is 29%.

Consider TGATTACAGCATCAAG (sugars k3 d10 k3, PS), for which the target mRNA inhibition (1 µM) was 69%.

For the setting “1 µM”, ATGTATCTTATAAGAC (sugars k3 d10 k3, PS) gave a target mRNA inhibition of 0%.

In the case of AATTACTCCGTTCTGC (sugars k3 d10 k3, PS), where the note is “1 µM”, the target mRNA inhibition stood at 6%.

As to “AATAGAGTCGGTCACC (sugars k3 d1 m1 d8 k3, PS)”, the target mRNA inhibition (1 µM) was 57%.

For the sequence CTATAGTAATCACAAG (sugars k3 d10 k3, PS), under “1 µM”, the target mRNA inhibition was found to be 35%.

In the case of AAGCATTGTTAGCTAA (sugars k3 d10 k3, PS), the target mRNA inhibition (1 µM) worked out at 11%.

As to “AGTCTTAAACCTTCCC (sugars k3 d9 k3 e1, PS)”, where the note is “1 µM”, the target mRNA inhibition is 61%.

For the setting “1 µM”, “TCTTGACAATGGTTGA (sugars kkdddddddddkekek, PS)” came in with a target mRNA inhibition of 40%.

As for “TCTGGGACCAAGGATA (sugars k3 d9 k3 e1, PS)”, the target mRNA inhibition (1 µM) worked out at 57%.

TACCTCTAAGTTAGCC (sugars k3 d10 k3, PS) came in with a target mRNA inhibition (1 µM) of 28%.

Consider ATTTATTGGTATGGTA (sugars k3 d10 k3, PS), for which the target mRNA inhibition (1 µM) turned out to be 46%.

In turn, CAGCATATTCATTTGG (sugars k3 d10 k3, PS) displayed a target mRNA inhibition (1 µM) of 49%.

Consider TAAACATCTCTGGGAC (sugars k3 d10 k3, PS), for which the target mRNA inhibition (1 µM) was found to be 51%.

As to AGACCAAAAAGATGGC (sugars k3 d10 k3, PS), the target mRNA inhibition by setting is: (0.02 µM) 4%; (0.078 µM) 35%; (0.313 µM) 69%; (1 µM) 80%; (1.25 µM) 82%; (5 µM) 72%.

Regarding CAAAAGTGTCCTCGAT (sugars k3 d10 k3, PS), for the setting “1 µM”, the target mRNA inhibition was determined as 5%.

Where the note is “1 µM”, TTACATATCAATGCCT (sugars k3 d10 k3, PS) had a target mRNA inhibition of 12%.

Under “1 µM”, TTCTATTAGTTGGCCT (sugars k3 d10 k3, PS) gave a target mRNA inhibition of 28%.

For the setting “1 µM”, TTTAGTCAGGTAGAGT (sugars k3 d10 k3, PS) displayed a target mRNA inhibition of 30%.

In turn, TTTTAGGGAGGTAGCT (sugars k3 d10 k3, PS) registered a target mRNA inhibition (1 µM) of 39%.

For the sequence GAACCCAGTATTCACA (sugars k3 d10 k3, PS), under “1 µM”, the target mRNA inhibition came to 0%.

The sequence “CACAAGTAAGGTAAAG (sugars kkdddddddddkekek, PS)” displayed a target mRNA inhibition (1 µM) of 38%.

The sequence TCTCCATCATCGATGG (sugars k3 d10 k3, PS) yielded a target mRNA inhibition (1 µM) of 24%.

For TATATAACATGGCTGG (sugars k3 d10 k3, PS), for the setting “1 µM”, the target mRNA inhibition turned out to be 8%.

In turn, “TATTAGAAGTCAGCCC (sugars k3 d1 m1 d8 k3, PS)” came in with a target mRNA inhibition (1 µM) of 29%.

Where the note is “1 µM”, “AGTGCATCTTAAGATA (sugars kkdddddddddkekek, PS)” returned a target mRNA inhibition of 27%.
